Data taken from patent publication US11919859B2, “Herbicidal mixture, composition and method” (FMC Corporation, priority 2017, dated 2024).

Legend:
Type in all cases: in vivo
[1] = system: barnyardgrass (ECHCG, Echinochloa crus-galli); assay: Test A flooded greenhouse test, barnyardgrass; details: 14 d
Description: (§1) Seeds of Asian sprangletop (LEPCH, Leptochloa chinensis), smallflower umbrella sedge (CYPDI, Cyperus difformis), monochoria (MOOVA, Monochoria vaginalis) and ducksalad (HETLI, Heteranthera limosa) were sown on the soil surface in four separate quadrants of 16-cm tubs filled with steam pasteurized Tama soil. Simultaneously, plantings of barnyardgrass (ECHCG, Echinochloa crus-galli), japonica rice (ORYSA, Oryza sativa) and late watergrass (ECHPH, Echinochloa phyllopogon) were established in separate “plug” flats. Plants were grown in a greenhouse using supplemental lighting to maintain a photoperiod of approximately 16 h; daytime and nighttime temperatures were approximately 27-30° C. and 24-27° C., respectively. After 8 d, barnyardgrass, rice and late watergrass plants were transplanted in 3 quadrants of separate tub, and the water level was adjusted to a final depth of 3 cm. Herbicide application of Cmpd. No. 1 and florpyrauxifen-benzyl (CAS Registry No. 1390661-72-9; 439.2 g/mol) timing was targeted at the 2.0 to 2.5 leaf stage and the plants were treated with test chemicals formulated in a non-phytotoxic solvent. Treated plants and controls were maintained in a greenhouse for 14 d, after which time all species were compared to controls and visually evaluated. Plant response ratings are summarized in Table A, and are based on a scale of 0 to 100 where 0 is no effect and 100 is complete control and is the mean of duplicate ratings. A dash (-) response means no test result.
(§2) Colby's Equation was used to determine the herbicidal effects expected from the mixtures. Colby's Equation (Colby, S. R. “Calculating Synergistic and Antagonistic Responses of Herbicide Combinations,” Weeds 1967 15(1), pp 20-22) calculates the expected additive effect of herbicidal mixtures and for two active ingredients is of the form: Pa+b=Pa+Pb−(PaPb/100) wherein Pa+b is the percentage effect of the mixture expected from additive contribution of the individual components: • Pa is the observed percentage effect of the first active ingredient at the same use rate as in the mixture, and • Pb is the observed percentage effect of the second active ingredient at the same use rate as in the mixture. The results and additive effects expected from Colby's Equation are listed in Table A. Application rates are grams of active ingredient per hectare (g a.i./ha). “Obsd.” is the observed effect and “Exp.” is expected effect calculated from Colby's Equation.

[2] = system: monochoria (MOOVA, Monochoria vaginalis); assay: Test A flooded greenhouse test, monochoria; details: 14 d
Description: as §1, §2

[3] = system: japonica rice (ORYSA, Oryza sativa); assay: Test A flooded greenhouse test, japonica rice (crop); details: in vivo
Description: as §1
Colby's Equation was used to determine the herbicidal effects expected from the mixtures. […] “Obsd.” is the observed effect and “Exp.” is expected effect calculated from Colby's Equation.

[4] = system: late watergrass (ECHPH, Echinochloa phyllopogon); assay: Test A flooded greenhouse test, late watergrass; details: 14 d
Description: as §1, §2

[5] = system: Asian sprangletop (LEPCH, Leptochloa chinensis); assay: Test A flooded greenhouse test, Asian sprangletop; details: 14 d
Description: as §1, §2

[6] = system: ducksalad (HETLI, Heteranthera limosa); assay: Test A flooded greenhouse test, ducksalad; details: 14 d
Description: as §1, §2

[7] = system: smallflower umbrella sedge (CYPDI, Cyperus difformis); assay: Test A flooded greenhouse test, smallflower umbrella sedge; details: 14 d
Description: as §1, §2

ORYSA Obsd. plant response rating (0 to 100) [3]: 0
Structure (SMILES): CN1C[C@H](c2cccc(C(F)(F)F)c2)[C@@H](C(=O)Nc2ccccc2F)C1=O [Cmpd. No. 1]
ECHCG Obsd. plant response rating (0 to 100) ([1]; Cmpd. No. 1 50 g a.i./ha alone): 70
ECHCG Obsd. plant response rating (0 to 100) ([1]; Cmpd. No. 1 75 g a.i./ha alone): 70
MOOVA Obsd. plant response rating (0 to 100) ([2]; Cmpd. No. 1 50 g a.i./ha alone): 70
MOOVA Obsd. plant response rating (0 to 100) ([2]; Cmpd. No. 1 75 g a.i./ha alone): 70
ECHPH Obsd. plant response rating (0 to 100) ([4]; Cmpd. No. 1 50 g a.i./ha alone): 75
ECHPH Obsd. plant response rating (0 to 100) ([4]; Cmpd. No. 1 75 g a.i./ha alone): 85
LEPCH Obsd. plant response rating (0 to 100) ([5]; Cmpd. No. 1 50 g a.i./ha alone): 75
LEPCH Obsd. plant response rating (0 to 100) ([5]; Cmpd. No. 1 75 g a.i./ha alone): 85
HETLI Obsd. plant response rating (0 to 100) ([6]; Cmpd. No. 1 50 g a.i./ha alone): 70
HETLI Obsd. plant response rating (0 to 100) ([6]; Cmpd. No. 1 75 g a.i./ha alone): 70
CYPDI Obsd. plant response rating (0 to 100) ([7]; Cmpd. No. 1 50 g a.i./ha alone): 0
CYPDI Obsd. plant response rating (0 to 100) ([7]; Cmpd. No. 1 75 g a.i./ha alone): 0
